Laboratory results as given in patent US9162992B2, “Compounds and compositions for treatment of breathing control disorders or diseases” (GALLEON PHARMACEUTICALS, INC., priority 2010, dated 2015).

Tests used:
[1] = system: spontaneously breathing rats; test: Dose-dependent effect on minute ventilation (MV) in naive rats; format: in vivo, rat
Experimental: All surgical procedures were performed under anesthesia induced by 2% isoflurane in compressed medical grade air. With rats in supine position, the right femoral vein was catheterized using polyethylene tubing (PE-50). This catheter was used for fluid and drug administration. Simultaneously, the right femoral artery was also catheterized for monitoring blood pressure. In order to measure the respiratory parameters in spontaneously breathing rats, trachea was intubated using 13 gauge tracheal tube (2.5 mm ID, Instech Solomon, Pa.).
After establishing a stable base-line at 1.5% isoflurane, cumulative dose-dependent (0.01, 0.03, 0.1, 0.3, 1, 3, 10 mg/kg) ventilatory responses to compounds (XXXVI) and (L), labeled as cmpd (A) and cmpd (B) respectively, were generated from spontaneously breathing rats. Maximum peak minute ventilatory (MV) values at each dose of corresponding drug were calculated and used for generating ED50 values.

pKa = format: physicochemical
[2] = Stability across narrow pH 2-3.6 (1 mg/mL; 10 mM citric acid and glycine); format: physicochemical; design: Assay: unit not given here; conditions: for Impurities: in %
Experimental: Buffer solutions containing ca. 10 mM each of citric acid and glycine in the pH range 2-3.6 were prepared by titrating 250 mL of a single stock containing both buffer agents with 1N NaOH/1N HCl and removing 50 mL aliquots at predetermined pH values. (XXXVI) solutions at 1 mg/mL were prepared in the buffers by dissolving ˜25 mg of (XXXVI) in ca. 23 mL of a given buffer, adjusting the pH to the target and making up the volume to 25.0 mL in a volumetric flask. Each of the buffered (XXXV) solutions was filtered through a 0.2 μm polyether sulfone syringe filter into a volumetric flask previously rinsed with 70% ethanol and dried in a laminar flow hood. Following filtration, each buffered (XXXV) solution was split into 9 aliquots in 5 mL serum vials previously rinsed with 70% ethanol and dried in a laminar flow hood. Filtration and preparation of aliquots were performed in a laminar flow hood. Of the nine aliquots, three aliquots were stored at each 40° C. and 60° C., two aliquots were stored at 25° C. and one aliquot was submitted for T0 testing. Samples were evaluated for pH, assay and related substances at T0 and, following 1 week, 2 weeks and 4 weeks of storage at 40° C. and 60° C. Samples stored at 25° C. served as controls to be analyzed if necessary

Structure (SMILES): CCCNc1nc(NCCC)nc(N(C)OC)n1.O=S(=O)(O)O [XXXVI, N-(4,6-Bis-n-propylamino-[1,3,5]triazin-2-yl)-N,O-dimethyl-hydroxylamine hydrogen sulfate]
- ED50 ([1]; Rattus norvegicus, iv, read-out: ED50, maximum peak minute ventilation): 0.14 mg/kg
- minute ventilation, dose dependence ([1]; cumulative IV doses, 1.5% isoflurane): increased minute ventilation in a dose-dependent manner
- pKa (pKa): 5.6

Structure (SMILES): CCCNc1nc(NCCC)nc(N(C)OC)n1 [XXXV, N-(4,6-Bis-n-propylamino-[1,3,5]triazin-2-yl)-N,O-dimethyl-hydroxylamine]
- pH dependence of impurity levels ([2]; 40° C. and 60° C. storage, pH 2-3.6): impurity levels decreased significantly with increasing pH
- impurity levels at pH 2 vs. impurity levels at pH 3.6 ([2]; pH range 2-3.6): ≥ 10 fold
- Assay ([2]; target pH 2.0, 40° C. 1 wk): 0.959
- pH ([2]; target pH 2.0, 40° C. 1 wk): 2.00
- Impurities ([2]; target pH 2.0, 40° C. 1 wk): 0.99
- Assay ([2]; target pH 2.0, 40° C. 2 wk): 0.955
- pH ([2]; target pH 2.0, 40° C. 2 wk): 1.98
- Impurities ([2]; target pH 2.0, 40° C. 2 wk): 1.55
- Assay ([2]; target pH 2.0, 40° C. 4 wk): 0.956
- pH ([2]; target pH 2.0, 40° C. 4 wk): 1.98
- Impurities ([2]; target pH 2.0, 40° C. 4 wk): 2.84
- Assay ([2]; target pH 2.0, 60° C. 1 wk): 0.913
- pH ([2]; target pH 2.0, 60° C. 1 wk): 2.00
- Impurities ([2]; target pH 2.0, 60° C. 1 wk): 3.87
- Assay ([2]; target pH 2.0, 60° C. 2 wk): 0.851
- pH ([2]; target pH 2.0, 60° C. 2 wk): 1.97
- Impurities ([2]; target pH 2.0, 60° C. 2 wk): 7.56
- Assay ([2]; target pH 2.0, 60° C. 4 wk): 0.768
- pH ([2]; target pH 2.0, 60° C. 4 wk): 1.89
- Impurities ([2]; target pH 2.0, 60° C. 4 wk): 13.99
- Assay ([2]; target pH 2.0, initial): 0.981
- pH ([2]; target pH 2.0, initial): 2.00
- Impurities ([2]; target pH 2.0, initial): 0.14
- Assay ([2]; target pH 2.3, 40° C. 1 wk): 0.984
- pH ([2]; target pH 2.3, 40° C. 1 wk): 2.36
- Impurities ([2]; target pH 2.3, 40° C. 1 wk): 0.47
- Assay ([2]; target pH 2.3, 40° C. 2 wk): 0.993
- pH ([2]; target pH 2.3, 40° C. 2 wk): 2.32
- Impurities ([2]; target pH 2.3, 40° C. 2 wk): 0.63
- Assay ([2]; target pH 2.3, 40° C. 4 wk): 0.995
- pH ([2]; target pH 2.3, 40° C. 4 wk): 2.33
- Impurities ([2]; target pH 2.3, 40° C. 4 wk): 1.70
- Assay ([2]; target pH 2.3, 60° C. 1 wk): 0.961
- pH ([2]; target pH 2.3, 60° C. 1 wk): 2.36
- Impurities ([2]; target pH 2.3, 60° C. 1 wk): 1.81
- Assay ([2]; target pH 2.3, 60° C. 2 wk): 0.932
- pH ([2]; target pH 2.3, 60° C. 2 wk): 2.34
- Impurities ([2]; target pH 2.3, 60° C. 2 wk): 3.53
- Assay ([2]; target pH 2.3, 60° C. 4 wk): 0.916
- pH ([2]; target pH 2.3, 60° C. 4 wk): 2.28
- Impurities ([2]; target pH 2.3, 60° C. 4 wk): 6.30
- Assay ([2]; target pH 2.3, initial): 0.987
- pH ([2]; target pH 2.3, initial): 2.33
- Impurities ([2]; target pH 2.3, initial): 0.09
- Assay ([2]; target pH 2.7, 40° C. 1 wk): 0.981
- pH ([2]; target pH 2.7, 40° C. 1 wk): 2.73
- Impurities ([2]; target pH 2.7, 40° C. 1 wk): 0.22
- Assay ([2]; target pH 2.7, 40° C. 2 wk): 0.985
- pH ([2]; target pH 2.7, 40° C. 2 wk): 2.72
- Impurities ([2]; target pH 2.7, 40° C. 2 wk): 0.37
- Assay ([2]; target pH 2.7, 40° C. 4 wk): 1.019
- pH ([2]; target pH 2.7, 40° C. 4 wk): 2.73
- Impurities ([2]; target pH 2.7, 40° C. 4 wk): 0.61
- Assay ([2]; target pH 2.7, 60° C. 1 wk): 0.978
- pH ([2]; target pH 2.7, 60° C. 1 wk): 2.75
- Impurities ([2]; target pH 2.7, 60° C. 1 wk): 0.97
- Assay ([2]; target pH 2.7, 60° C. 2 wk): 1.144
- pH ([2]; target pH 2.7, 60° C. 2 wk): 2.74
- Impurities ([2]; target pH 2.7, 60° C. 2 wk): 1.76
- Assay ([2]; target pH 2.7, 60° C. 4 wk): 0.987
- pH ([2]; target pH 2.7, 60° C. 4 wk): 2.67
- Impurities ([2]; target pH 2.7, 60° C. 4 wk): 3.09
- Assay ([2]; target pH 2.7, initial): 0.987
- pH ([2]; target pH 2.7, initial): 2.72
- Assay ([2]; target pH 3.0, 40° C. 1 wk): 1.01
- pH ([2]; target pH 3.0, 40° C. 1 wk): 3.04
- Impurities ([2]; target pH 3.0, 40° C. 1 wk): 0.21
- Assay ([2]; target pH 3.0, 40° C. 2 wk): 0.987
- pH ([2]; target pH 3.0, 40° C. 2 wk): 3.05
- Impurities ([2]; target pH 3.0, 40° C. 2 wk): 0.34
- Assay ([2]; target pH 3.0, 40° C. 4 wk): 1.027
- pH ([2]; target pH 3.0, 40° C. 4 wk): 3.04
- Impurities ([2]; target pH 3.0, 40° C. 4 wk): 0.58
- Assay ([2]; target pH 3.0, 60° C. 1 wk): 0.991
- pH ([2]; target pH 3.0, 60° C. 1 wk): 3.05
- Impurities ([2]; target pH 3.0, 60° C. 1 wk): 0.61
- Assay ([2]; target pH 3.0, 60° C. 2 wk): 0.975
- Impurities ([2]; target pH 3.0, 60° C. 2 wk): 1.27
- Assay ([2]; target pH 3.0, 60° C. 4 wk): 0.987
- Impurities ([2]; target pH 3.0, 60° C. 4 wk): 1.82
- Assay ([2]; target pH 3.0, initial): 1.005
- pH ([2]; target pH 3.0, initial): 3.02
- Assay ([2]; target pH 3.3, 40° C. 1 wk): 1.02
- pH ([2]; target pH 3.3, 40° C. 1 wk): 3.35
- Assay ([2]; target pH 3.3, 40° C. 2 wk): 1.01
- pH ([2]; target pH 3.3, 40° C. 2 wk): 3.35
- Assay ([2]; target pH 3.3, 40° C. 4 wk): 1.047
- pH ([2]; target pH 3.3, 40° C. 4 wk): 3.34
- Impurities ([2]; target pH 3.3, 40° C. 4 wk): 0.25
- Assay ([2]; target pH 3.3, 60° C. 1 wk): 0.997
- pH ([2]; target pH 3.3, 60° C. 1 wk): 3.36
- Impurities ([2]; target pH 3.3, 60° C. 1 wk): 0.41
- Assay ([2]; target pH 3.3, 60° C. 2 wk): 0.995
- pH ([2]; target pH 3.3, 60° C. 2 wk): 3.37
- Impurities ([2]; target pH 3.3, 60° C. 2 wk): 0.69
- Assay ([2]; target pH 3.3, 60° C. 4 wk): 1.027
- pH ([2]; target pH 3.3, 60° C. 4 wk): 3.34
- Impurities ([2]; target pH 3.3, 60° C. 4 wk): 1.26
- Assay ([2]; target pH 3.3, initial): 1.019
- pH ([2]; target pH 3.3, initial): 3.31
- Assay ([2]; target pH 3.6, 40° C. 1 wk): 0.991
- pH ([2]; target pH 3.6, 40° C. 1 wk): 3.64
- Assay ([2]; target pH 3.6, 40° C. 2 wk): 0.985
- pH ([2]; target pH 3.6, 40° C. 2 wk): 3.70
- Assay ([2]; target pH 3.6, 40° C. 4 wk): 0.991
- pH ([2]; target pH 3.6, 40° C. 4 wk): 3.64
- Impurities ([2]; target pH 3.6, 40° C. 4 wk): 0.17
- Assay ([2]; target pH 3.6, 60° C. 1 wk): 0.979
- pH ([2]; target pH 3.6, 60° C. 1 wk): 3.65
- Impurities ([2]; target pH 3.6, 60° C. 1 wk): 0.36
- pH ([2]; target pH 3.6, 60° C. 2 wk): 3.70
- Impurities ([2]; target pH 3.6, 60° C. 2 wk): 0.62
- pH ([2]; target pH 3.6, 60° C. 4 wk): 3.64
- Impurities ([2]; target pH 3.6, 60° C. 4 wk): 0.99
- Assay ([2]; target pH 3.6, initial): 0.996
- pH ([2]; target pH 3.6, initial): 3.62
- Impurities ([2]; target pH 3.6, initial): 0.12
